Laboratory results: patent publication US8609690B2, “Aryl- and heteroarylcarbonyl derivatives of substituted nortropanes, medicaments containing such compounds and their use” (Boehringer Ingelheim International GmbH, priority 2008, dated 2013)

molecular target: T1, 11β-HSD 1 (Homo sapiens, UniProt P28845); assay: In vitro inhibition of 11β-HSD 1, HTRF detection of cortisol generated by human liver microsomes; type: biochemical; settings: 1 μM test compound, 100% indicates no inhibition, zero or below zero indicates complete inhibition (relative to carbenoxolone)
T1 construct: detecting cortisol generated from cortisterone by human liver microsomes; from tissue; host or cells: human liver microsomes
T1 sequence (P28845 whole entry): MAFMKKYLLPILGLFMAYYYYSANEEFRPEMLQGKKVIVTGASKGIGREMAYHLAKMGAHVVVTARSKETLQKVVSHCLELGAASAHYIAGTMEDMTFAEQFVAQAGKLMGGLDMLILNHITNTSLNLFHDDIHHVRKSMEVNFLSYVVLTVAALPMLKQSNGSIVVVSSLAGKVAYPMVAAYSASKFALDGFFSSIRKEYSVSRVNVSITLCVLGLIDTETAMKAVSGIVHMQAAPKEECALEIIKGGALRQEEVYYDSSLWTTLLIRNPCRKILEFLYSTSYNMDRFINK
In short: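 Human liver microsomes with test compound were incubated 1 h at 37 °C in Tris buffer, pH 6.0, with 200 μM NADPH and 80 nM cortisone. Cortisol formed was detected by competitive HTRF immunoassay (665/615 nm ratio) and calibrated against a cortisol standard curve. Values are activities at 1 μM compound relative to carbenoxolone, where 100% indicates no inhibition.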

Molecule	Inhibitory activity on 11β-HSD 1, % CTL [% CTL]
COc1ccc(C(=O)N2[C@@H]3CC[C@H]2C[C@@H](c2ccc(F)cc2)C3)c(OC)c1 [Example 117, endo-(2,4-Dimethoxy-phenyl)-[3-(4-fluoro-phenyl)-8-aza-bicyclo[3.2.1]oct-8-yl]-methanone]	53
O=C(c1cccc(-c2cnco2)c1)N1[C@@H]2CC[C@H]1C[C@@H](c1ccc(F)cc1)C2 [Example 91, endo-[3-(4-Fluoro-phenyl)-8-aza-bicyclo[3.2.1]oct-8-yl]-(3-oxazol-5-yl-phenyl)-methanone]	69
COc1cccc(C(=O)N2[C@@H]3CC[C@H]2C[C@@H](c2ccc(F)cc2)C3)c1OC [Example 127, endo-(2,3-Dimethoxy-phenyl)-[3-(4-fluoro-phenyl)-8-aza-bicyclo[3.2.1]oct-8-yl]-methanone]	85
endo-[3-(3,4-Difluoro-phenyl)-8-aza-bicyclo[3.2.1]oct-8-yl]-(2,3-dihydro-benzo[1,4]dioxin-6-yl)-methanone [Example 137]	16
O=C(c1ccc2c(c1)OCCO2)N1[C@@H]2CC[C@H]1C[C@@H](c1ccc(Oc3ccccc3)cc1)C2 [Example 152, endo-(2,3-Dihydro-benzo[1 ,4]dioxin-6-yl)-[3-(4-phenoxy-phenyl)-8-aza-bicyclo[3.2.1]oct-8-yl]-methanone]	5
COc1cc(C(=O)N2[C@@H]3CC[C@H]2C[C@@H](c2ccc(F)cc2)C3)cc(OC)c1OC [Example 44, endo-[3-(4-Fluoro-phenyl)-8-aza-bicyclo[3.2.1]oct-8-yl]-(3,4,5-trimethoxy-phenyl)-methanone]	57
Cc1ccc(C(=O)N2[C@@H]3CC[C@H]2C[C@@H](c2ccc(F)cc2)C3)cc1 [Example 101, endo-[3-(4-Fluoro-phenyl)-8-aza-bicyclo[3.2.1]oct-8-yl]-p-tolyl-methanone]	4
CC(=O)Cc1ccc(C(=O)N2[C@@H]3CC[C@H]2C[C@@H](c2ccc(F)cc2)C3)cc1 [Example 58, endo-1-{4-[3-(4-Fluoro-phenyl)-8-aza-bicyclo[3.2.1]octane-8-carbonyl]-phenyl}-propan-2-one]	68
O=C(c1ccc2c(c1)OCCO2)N1C2CCC1CC(c1cccc(-c3ccccc3)c1)C2 (stereo not shown) [Example 150, (3-Biphenyl-3-yl-8-aza-bicyclo[3.2.1]oct-8-yl)-(2,3-dihydro-benzo[1,4]dioxin-6-yl)-methanone]	62
Cc1cc(=O)n2ncc(C(=O)N3[C@@H]4CC[C@H]3C[C@@H](c3ccc(F)cc3)C4)c2[nH]1 [Example 8, endo-3-[3-(4-Fluoro-phenyl)-8-aza-bicyclo[3.2.1]octane-8-carbonyl]-5-methyl-4H-pyrazolo[1,5-a]pyrimidin-7-one]	87
Cc1ccccc1C(=O)N1[C@@H]2CC[C@H]1C[C@@H](c1ccc(F)cc1)C2 [Example 100, endo-[3-(4-Fluoro-phenyl)-8-aza-bicyclo[3.2.1]oct-8-yl]-o-tolyl-methanone]	61
COc1cc(C(=O)N2[C@@H]3CC[C@H]2C[C@@H](c2ccc(F)cc2)C3)ccc1O [Example 171, endo-[3-(4-Fluoro-phenyl)-8-aza-bicyclo[3.2.1]oct-8-yl]-(4-hydroxy-3-methoxy-phenyl)-methanone]	−26
Cc1cc(C(F)(F)F)n2nc(C(=O)N3[C@@H]4CC[C@H]3C[C@@H](c3ccc(F)cc3)C4)cc2n1 [Example 42, endo-[3-(4-Fluoro-phenyl)-8-aza-bicyclo[3.2.1]oct-8-yl]-(5-methyl-7-trifluoromethyl-pyrazolo[1,5-a]pyrimidin-2-yl)-methanone]	93
CC(C)(C)c1cc(C(=O)N2[C@@H]3CC[C@H]2C[C@@H](c2ccc(F)cc2)C3)[nH]n1 [Example 11, endo-(5-tert-Butyl-2H-pyrazol-3-yl)-[3-(4-fluoro-phenyl)-8-aza-bicyclo[3.2.1]oct-8-yl]-methanone]	82
O=C(c1cscn1)N1[C@@H]2CC[C@H]1C[C@@H](c1ccc(F)cc1)C2 [Example 43, endo-[3-(4-Fluoro-phenyl)-8-aza-bicyclo[3.2.1]oct-8-yl]-thiazol-4-yl-methanone]	95
CS(=O)(=O)N1CCc2cc(C(=O)N3[C@@H]4CC[C@H]3C[C@@H](c3ccc(F)cc3)C4)ccc21 [Example 20, endo-[3-(4-Fluoro-phenyl)-8-aza-bicyclo[3.2.1]oct-8-yl]-(1-methanesulfonyl-2,3-dihydro-1H-indol-5-yl)-methanone]	87
Cn1nnc2cc(C(=O)N3[C@@H]4CC[C@H]3C[C@@H](c3ccc(F)cc3)C4)ccc21 [Example 68, endo-[3-(4-Fluoro-phenyl)-8-aza-bicyclo[3.2.1]oct-8-yl]-(1-methyl-1H-benzotriazol-5-yl)-methanone]	66

Molecule	Inhibitory activity on 11β-HSD 1, % CTL [% CTL]
O=C(c1ccc2ncsc2c1)N1[C@@H]2CC[C@H]1C[C@@H](c1ccc(F)cc1)C2 [Example 94, endo-Benzothiazol-6-yl-[3-(4-fluoro-phenyl)-8-aza-bicyclo[3.2.1]oct-8-yl]-methanone]	12
Cc1[nH]c2ccc(C(=O)N3[C@@H]4CC[C@H]3C[C@@H](c3ccc(F)cc3)C4)cc2c1C [Example 132, endo-(2,3-Dimethyl-1H-indol-5-yl)-[3-(4-fluoro-phenyl)-8-aza-bicyclo[3.2.1]oct-8-yl]-methanone]	−36
CC(=O)c1ccc(C(=O)N2[C@@H]3CC[C@H]2C[C@@H](c2ccc(F)cc2)C3)cc1 [Example 128, endo-1-{4-[3-(4-Fluoro-phenyl)-8-aza-bicyclo[3.2.1]octane-8-carbonyl]-phenyl}-ethanone]	79
COc1ccc(C(=O)N2[C@@H]3CC[C@H]2C[C@@H](c2ccc(F)cc2)C3)cc1Cl [Example 165, endo-(3-Chloro-4-methoxy-phenyl)-[3-(4-fluoro-phenyl)-8-aza-bicyclo[3.2.1]oct-8-yl]-methanone]	2
O=C(c1ccc2c(c1)OCCO2)N1C2CCC1CC(c1ccccc1)C2 (stereo not shown) [Example 133, (2,3-Dihydro-benzo[1,4]dioxin-6-yl)-(3-phenyl-8-aza-bicyclo[3.2.1]oct-8-yl)-methanone]	−28
O=C(c1ccc(F)cc1)N1[C@@H]2CC[C@H]1C[C@@H](c1ccc(F)cc1)C2 [Example 103, endo-(4-Fluoro-phenyl)-[3-(4-fluoro-phenyl)-8-aza-bicyclo[3.2.1]oct-8-yl]-methanone]	32
N#Cc1ccccc1C(=O)N1[C@@H]2CC[C@H]1C[C@@H](c1ccc(F)cc1)C2 [Example 63, endo-2-[3-(4-Fluoro-phenyl)-8-aza-bicyclo[3.2.1]octane-8-carbonyl]-benzonitrile]	91
O=C(c1cccc2[nH]cnc12)N1[C@@H]2CC[C@H]1C[C@@H](c1ccc(F)cc1)C2 [Example 73, endo-(1H-Benzoimidazol-4-yl)-[3-(4-fluoro-phenyl)-8-aza-bicyclo[3.2.1]oct-8-yl]-methanone]	90
O=C(c1cc(Cl)c(O)c(Cl)c1)N1[C@@H]2CC[C@H]1C[C@@H](c1ccc(F)cc1)C2 [Example 163, endo-(3,5-Dichloro-4-hydroxy-phenyl)-[3-(4-fluoro-phenyl)-8-aza-bicyclo[3.2.1]oct-8-yl]-methanone]	−7
CC(C)c1ccc([C@H]2C[C@H]3CC[C@@H](C2)N3C(=O)c2ccc3c(c2)OCCO3)cc1 [Example 136, endo-(2,3-Dihydro-benzo[1,4]dioxin-6-yl)-[3-(4-isopropyl-phenyl)-8-aza-bicyclo[3.2.1]oct-8-yl]-methanone]	17
Cc1ccc([C@H]2C[C@H]3CC[C@@H](C2)N3C(=O)c2cccs2)cc1 [Example 15, endo-Thiophen-2-yl-(3-p-tolyl-8-aza-bicyclo[3.2.1]oct-8-yl)-methanone]	56
COC(=O)c1cccc(C(=O)N2[C@@H]3CC[C@H]2C[C@@H](c2ccc(F)cc2)C3)c1 [Example 61, endo-3-[3-(4-Fluoro-phenyl)-8-aza-bicyclo[3.2.1]octane-8-carbonyl]-benzoic acid methyl ester]	94
COc1cccc(C(=O)N2[C@@H]3CC[C@H]2C[C@@H](c2ccc(F)cc2)C3)c1 [Example 109, endo-[3-(4-Fluoro-phenyl)-8-aza-bicyclo[3.2.1]oct-8-yl]-(3-methoxy-phenyl)-methanone]	−33
Cc1ccc([C@H]2C[C@H]3CC[C@@H](C2)N3C(=O)c2ccc3c(c2)OCCO3)cc1 [Example 138, endo-(2,3-Dihydro-benzo[1,4]dioxin-6-yl)-(3-p-tolyl-8-aza-bicyclo[3.2.1]oct-8-yl)-methanone]	4
CC(=O)Nc1cccc(C(=O)N2[C@@H]3CC[C@H]2C[C@@H](c2ccc(F)cc2)C3)c1 [Example 64, endo-N-{3-[3-(4-Fluoro-phenyl)-8-aza-bicyclo[3.2.1]octane-8-carbonyl]-phenyl}-acetamide]	99
O=C(c1cccc(-c2cc[nH]n2)c1)N1[C@@H]2CC[C@H]1C[C@@H](c1ccc(F)cc1)C2 [Example 90, endo-[3-(4-Fluoro-phenyl)-8-aza-bicyclo[3.2.1]oct-8-yl]-[3-(1H-pyrazol-3-yl)-phenyl]-methanone]	42
COC(=O)c1ccc([C@H]2C[C@H]3CC[C@@H](C2)N3C(=O)c2ccc3c(c2)OCCO3)cc1 [Example 154]	59
